# Experiments:
# Format in all cases: functional
# Staphylococcus aureus [1] = assay: Decrease in icaC gene expression in biofilm-associated cells of epidemic methicillin-resistant Staphylococcus aureus isolate 16 at 4 times MIC incubated for 1 hr by whole genome microarray relative to untreated control
# Staphylococcus aureus [2] = assay: Decrease in capC gene expression in biofilm-associated cells of epidemic methicillin-resistant Staphylococcus aureus isolate 16 at 4 times MIC incubated for 1 hr by whole genome microarray relative to untreated control
# Staphylococcus aureus [3] = assay: Decrease in capF gene expression in biofilm-associated cells of epidemic methicillin-resistant Staphylococcus aureus isolate 16 at 4 times MIC incubated for 1 hr by whole genome microarray relative to untreated control
# Staphylococcus aureus [4] = assay: Increase in rplJ gene expression in biofilm-associated cells of epidemic methicillin-resistant Staphylococcus aureus isolate 16 at 4 times MIC incubated for 1 hr by whole genome microarray relative to untreated control
# Staphylococcus aureus [5] = assay: Decrease in asp23 gene expression in biofilm-associated cells of epidemic methicillin-resistant Staphylococcus aureus isolate 16 at 4 times MIC incubated for 1 hr by whole genome microarray relative to untreated control
# Staphylococcus aureus [6] = assay: Increase in cspB gene expression in biofilm-associated cells of epidemic methicillin-resistant Staphylococcus aureus isolate 16 at 4 times MIC incubated for 1 hr by whole genome microarray relative to untreated control
# Staphylococcus aureus [7] = assay: Increase in fnbB gene expression in biofilm-associated cells of epidemic methicillin-resistant Staphylococcus aureus isolate 16 at 4 times MIC incubated for 1 hr by RT-PCR relative to untreated control
# Staphylococcus aureus [8] = assay: Increase in clfB gene expression in biofilm-associated cells of epidemic methicillin-resistant Staphylococcus aureus isolate 16 at 4 times MIC incubated for 1 hr by RT-PCR relative to untreated control
# Staphylococcus aureus [9] = assay: Decrease in sasF gene expression in biofilm-associated cells of epidemic methicillin-resistant Staphylococcus aureus isolate 16 at 4 times MIC incubated for 1 hr by RT-PCR relative to untreated control
# Staphylococcus aureus [10] = assay: Decrease in clpC gene expression in biofilm-associated cells of epidemic methicillin-resistant Staphylococcus aureus isolate 16 at 4 times MIC incubated for 1 hr by RT-PCR relative to untreated control
# Staphylococcus aureus [11] = assay: Decrease in capG expression in biofilm-associated cells of epidemic methicillin-resistant Staphylococcus aureus isolate 16-1 at 4 times MIC incubated for 1 hr by RT-PCR relative to untreated control
# Staphylococcus aureus [12] = assay: Increase in clfB expression in biofilm-associated cells of epidemic methicillin-resistant Staphylococcus aureus isolate 16-1 at 4 times MIC incubated for 1 hr by RT-PCR relative to untreated control
# Staphylococcus aureus [13] = assay: Decrease in clpC expression in biofilm-associated cells of epidemic methicillin-resistant Staphylococcus aureus isolate 16-1 at 4 times MIC incubated for 1 hr by RT-PCR relative to untreated control
# Staphylococcus aureus [14] = assay: Decrease in clpB gene expression in biofilm-associated cells of epidemic methicillin-resistant Staphylococcus aureus isolate 16 at 4 times MIC incubated for 1 hr by whole genome microarray relative to untreated control
# Staphylococcus aureus [15] = assay: Decrease in sodA gene expression in biofilm-associated cells of epidemic methicillin-resistant Staphylococcus aureus isolate 16 at 4 times MIC incubated for 1 hr by whole genome microarray relative to untreated control
# Staphylococcus aureus [16] = assay: Increase in mnhG gene expression in biofilm-associated cells of epidemic methicillin-resistant Staphylococcus aureus isolate 16 at 4 times MIC incubated for 1 hr by whole genome microarray relative to untreated control
# Staphylococcus aureus [17] = assay: Increase in mnhF gene expression in biofilm-associated cells of epidemic methicillin-resistant Staphylococcus aureus isolate 16 at 4 times MIC incubated for 1 hr by whole genome microarray relative to untreated control
# Staphylococcus aureus [18] = assay: Increase in sarA gene expression in biofilm-associated cells of epidemic methicillin-resistant Staphylococcus aureus isolate 16 at 4 times MIC incubated for 1 hr by whole genome microarray relative to untreated control
# Staphylococcus aureus [19] = assay: Decrease in polA gene expression in biofilm-associated cells of epidemic methicillin-resistant Staphylococcus aureus isolate 16 at 4 times MIC incubated for 1 hr by whole genome microarray relative to untreated control
# Staphylococcus aureus [20] = assay: Increase in dnaG gene expression in biofilm-associated cells of epidemic methicillin-resistant Staphylococcus aureus isolate 16 at 4 times MIC incubated for 1 hr by whole genome microarray relative to untreated control
# Staphylococcus aureus [21] = assay: Increase in topA gene expression in biofilm-associated cells of epidemic methicillin-resistant Staphylococcus aureus isolate 16 at 4 times MIC incubated for 1 hr by whole genome microarray relative to untreated control
# Staphylococcus aureus [22] = assay: Increase in sstD gene expression in biofilm-associated cells of epidemic methicillin-resistant Staphylococcus aureus isolate 16 at 4 times MIC incubated for 1 hr by whole genome microarray relative to untreated control
# Staphylococcus aureus [23] = assay: Increase in clfB gene expression in biofilm-associated cells of epidemic methicillin-resistant Staphylococcus aureus isolate 16 at 4 times MIC incubated for 1 hr by whole genome microarray relative to untreated control
# Staphylococcus aureus [24] = assay: Increase in fnbB expression in biofilm-associated cells of epidemic methicillin-resistant Staphylococcus aureus isolate 16-1 at 4 times MIC incubated for 1 hr by RT-PCR relative to untreated control
# Staphylococcus aureus [25] = assay: Decrease in icaC expression in biofilm-associated cells of epidemic methicillin-resistant Staphylococcus aureus isolate 16-1 at 4 times MIC incubated for 1 hr by RT-PCR relative to untreated control
# Staphylococcus aureus [26] = assay: Decrease in tst expression in biofilm-associated cells of epidemic methicillin-resistant Staphylococcus aureus isolate 16-1 at 4 times MIC incubated for 1 hr by RT-PCR relative to untreated control
# Staphylococcus aureus [27] = assay: Decrease in fnbB expression in biofilm-associated cells of epidemic methicillin-resistant Staphylococcus aureus isolate 16-2 at 4 times MIC incubated for 1 hr by RT-PCR relative to untreated control
# Staphylococcus aureus [28] = assay: Increase in isaA expression in biofilm-associated cells of epidemic methicillin-resistant Staphylococcus aureus isolate 16-2 at 4 times MIC incubated for 1 hr by RT-PCR relative to untreated control
# Staphylococcus aureus [29] = assay: Increase in ssaA expression in biofilm-associated cells of epidemic methicillin-resistant Staphylococcus aureus isolate 16-2 at 4 times MIC incubated for 1 hr by RT-PCR relative to untreated control
# Staphylococcus aureus [30] = assay: Decrease in capC expression in biofilm-associated cells of epidemic methicillin-resistant Staphylococcus aureus isolate 15 at 4 times MIC incubated for 1 hr by RT-PCR relative to untreated control
# Staphylococcus aureus [31] = assay: Increase in fnbB expression in biofilm-associated cells of epidemic methicillin-resistant Staphylococcus aureus isolate 15 at 4 times MIC incubated for 1 hr by RT-PCR relative to untreated control
# Staphylococcus aureus [32] = assay: Increase in isaA expression in biofilm-associated cells of epidemic methicillin-resistant Staphylococcus aureus isolate 15 at 4 times MIC incubated for 1 hr by RT-PCR relative to untreated control
# Staphylococcus aureus [33] = assay: Decrease in sasF expression in biofilm-associated cells of epidemic methicillin-resistant Staphylococcus aureus isolate 15 at 4 times MIC incubated for 1 hr by RT-PCR relative to untreated control
# Staphylococcus aureus [34] = assay: Increase in ssaA expression in biofilm-associated cells of epidemic methicillin-resistant Staphylococcus aureus isolate 15 at 4 times MIC incubated for 1 hr by RT-PCR relative to untreated control
structure (smiles),measurement,setting,value
CN(C)c1cc(NC(=O)CNC(C)(C)C)c(O)c2c1C[C@H]1C[C@H]3[C@H](N(C)C)C(O)=C(C(N)=O)C(=O)[C@@]3(O)C(O)=C1C2=O [TIGECYCLINE],fold change (FC),Staphylococcus aureus [1],2.06
same,fold change (FC),Staphylococcus aureus [2],3.14
same,fold change (FC),Staphylococcus aureus [3],2.66
same,fold change (FC),Staphylococcus aureus [4],12.75
same,fold change (FC),Staphylococcus aureus [5],8.61
same,fold change (FC),Staphylococcus aureus [6],5.59
same,fold change (FC),Staphylococcus aureus [7],3.03
same,fold change (FC),Staphylococcus aureus [8],7.5
same,fold change (FC),Staphylococcus aureus [9],1.32
same,fold change (FC),Staphylococcus aureus [10],1.14
same,fold change (FC),Staphylococcus aureus [11],1.01
same,fold change (FC),Staphylococcus aureus [12],7.5
same,fold change (FC),Staphylococcus aureus [13],1.14
same,fold change (FC),Staphylococcus aureus [14],2.49
same,fold change (FC),Staphylococcus aureus [15],2.59
same,fold change (FC),Staphylococcus aureus [16],2.85
same,fold change (FC),Staphylococcus aureus [17],3.27
same,fold change (FC),Staphylococcus aureus [18],2.37
same,fold change (FC),Staphylococcus aureus [19],2.11
same,fold change (FC),Staphylococcus aureus [20],2.19
same,fold change (FC),Staphylococcus aureus [21],2.26
same,fold change (FC),Staphylococcus aureus [22],3.27
same,fold change (FC),Staphylococcus aureus [23],4
same,fold change (FC),Staphylococcus aureus [24],3.03
same,fold change (FC),Staphylococcus aureus [25],2.23
same,fold change (FC),Staphylococcus aureus [26],1.51
same,fold change (FC),Staphylococcus aureus [27],1.53
same,fold change (FC),Staphylococcus aureus [28],3.7
same,fold change (FC),Staphylococcus aureus [29],1.72
same,fold change (FC),Staphylococcus aureus [30],1.64
same,fold change (FC),Staphylococcus aureus [31],1.22
same,fold change (FC),Staphylococcus aureus [32],1.09
same,fold change (FC),Staphylococcus aureus [33],1.86
same,fold change (FC),Staphylococcus aureus [34],1.17

# Reference: ChEMBL document CHEMBL1240349, “Influence of tigecycline on expression of virulence factors in biofilm-associated cells of methicillin-resistant Staphylococcus aureus” (2010)
